From patent US9849129B2, “Sodium channel blockers for skin disorders” (PARION SCIENCES, INC., priority 2015, dated 2017) come the findings set out here.

One data set deals with Bronchial cells. As to the kind of experiment: Apical disappearance assay (epithelial absorption). Format: in vitro ADME. The following applies: for Epithelial Uptake Rate: apical surface, initial concentration 10 μM. As for the experimental part: Bronchial cells (dog, human, sheep, or rodent cells) are seeded at a density of 0.25×10^6/cm^2 on a porous Transwell-Col collagen-coated membrane with a growth area of 1.13 cm^2 grown at an air-liquid interface in hormonally defined media that promotes a polarized epithelium. From 12 to 20 days after development of an air-liquid interface (ALI) the cultures are expected to be >90% ciliated, and mucins will accumulate on the cells. To ensure the integrity of primary airway epithelial cell preparations, the transepithelial resistance (Rt) and transepithelial potential differences (PD), which are indicators of the integrity of polarized nature of the culture, are measured. Human cell systems are preferred for studies of rates of absorption from apical surfaces. […] A series of samples (5 μl volume per sample) is collected at various time points, including 0, 5, 20, 40, 90 and 240 minutes. Concentrations are determined by measuring intrinsic fluorescence of each sodium channel blocker using a Fluorocount Microplate Flourometer or HPLC. Quantitative analysis employs a standard curve generated from authentic reference standard materials of known concentration and purity. Data analysis of the rate of disappearance is performed using nonlinear regression, one phase exponential decay (Prism V 3.0).

Another data set relates to mouse corneas. Kind of data set: Confocal microscopy of drug penetration in mouse corneas. The settings on record: one hour after application to corneal epithelium, 37° C. (FIG. 2). As for the experimental part:
Corneal cells were labeled using calcein-AM dye by incubating with corneas for 45 minutes at 37° C. in DMEM media. […] Serial x-y images were obtained one hour post-drug addition by confocal microscopy. […] Pharmacological Effects and Mechanism of Action of the Drug in Animals

Data set [1] concerns primary human airway epithelial cells. Kind of data set: Confocal microscopy assay of amiloride congener uptake, airway epithelial cells. It is filed as cell-based. The following applies: 10 uM apical, 60 minute incubation (FIG. 1). The procedure: FIG. 1. […] Benzamil or Compound 2 (10 uM each) were added to the apical compartment of primary human airway epithelial cells. After a 60 minute incubation, the compounds were visualized by confocal microscopy.
Virtually all amiloride-like molecules fluoresce in the ultraviolet range. This property of these molecules may be used to directly measure cellular update using x-z confocal microscopy. […] Serial x-z images are obtained with time and the magnitude of fluorescence accumulating in the cellular compartment is quantitated and plotted as a change in fluorescence versus time.
Primary HBE cells were placed in an apparatus designed to position transwell membrane supports on a confocal microscope stage (Leica, Wetzlar, Germany). The glycocalyx and cilia were labeled with 3 μM wheat germ agglutinin-fluorescein (Molecular Probes, Eugene, Oreg.) for 45 mm at 37° C. to visualize the apical domain of HBE cell cultures. The autofluorescence of the cells was acquired prior to apical compound addition. Images were acquired with a 63× water immersion lens in the x-z plane. Benzamil was added to the mucosal compartment (10 μM; 350 μl), and images were recorded serially from 0 to 5 mm.

Data set [2] deals with T1, airway epithelial sodium currents (epithelial sodium channel, ENaC) (UniProt A0A8I3MKE6+A0A8I3Q679+Q95165).
T1 sequence (A0A8I3MKE6 1-646): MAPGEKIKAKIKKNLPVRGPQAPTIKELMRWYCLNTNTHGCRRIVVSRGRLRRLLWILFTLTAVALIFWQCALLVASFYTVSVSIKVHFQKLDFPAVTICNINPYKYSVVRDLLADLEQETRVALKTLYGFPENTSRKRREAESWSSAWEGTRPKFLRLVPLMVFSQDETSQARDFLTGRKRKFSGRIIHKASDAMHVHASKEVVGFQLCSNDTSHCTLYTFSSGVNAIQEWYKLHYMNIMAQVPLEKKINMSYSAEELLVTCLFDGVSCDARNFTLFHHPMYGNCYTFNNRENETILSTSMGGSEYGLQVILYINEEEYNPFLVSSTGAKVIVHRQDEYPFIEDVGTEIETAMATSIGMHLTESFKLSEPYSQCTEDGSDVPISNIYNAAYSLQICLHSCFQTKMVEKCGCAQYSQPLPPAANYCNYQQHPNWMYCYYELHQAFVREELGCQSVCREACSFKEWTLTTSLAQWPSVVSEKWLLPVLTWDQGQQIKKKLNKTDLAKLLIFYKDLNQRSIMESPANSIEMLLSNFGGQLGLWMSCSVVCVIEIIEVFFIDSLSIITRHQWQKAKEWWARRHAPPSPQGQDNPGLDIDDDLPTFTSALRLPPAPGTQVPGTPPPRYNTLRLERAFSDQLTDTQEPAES
T1 sequence (A0A8I3Q679 1-649): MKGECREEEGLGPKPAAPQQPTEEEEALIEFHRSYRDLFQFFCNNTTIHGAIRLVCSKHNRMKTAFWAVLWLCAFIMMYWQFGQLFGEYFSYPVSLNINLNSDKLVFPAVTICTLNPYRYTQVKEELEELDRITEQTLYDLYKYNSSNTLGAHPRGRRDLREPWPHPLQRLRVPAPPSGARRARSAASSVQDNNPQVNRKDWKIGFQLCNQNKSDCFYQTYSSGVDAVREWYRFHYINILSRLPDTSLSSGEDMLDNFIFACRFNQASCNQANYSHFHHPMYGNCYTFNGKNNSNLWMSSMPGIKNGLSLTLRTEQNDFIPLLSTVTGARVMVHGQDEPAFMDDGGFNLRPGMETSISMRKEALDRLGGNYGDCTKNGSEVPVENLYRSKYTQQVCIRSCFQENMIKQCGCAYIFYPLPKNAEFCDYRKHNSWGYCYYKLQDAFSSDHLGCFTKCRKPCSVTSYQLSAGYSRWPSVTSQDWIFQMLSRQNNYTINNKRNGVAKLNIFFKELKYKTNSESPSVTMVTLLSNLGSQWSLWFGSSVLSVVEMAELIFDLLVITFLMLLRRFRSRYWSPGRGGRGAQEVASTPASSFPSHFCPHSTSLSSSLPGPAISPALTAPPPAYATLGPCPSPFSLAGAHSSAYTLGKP
T1 sequence (Q95165 1-641): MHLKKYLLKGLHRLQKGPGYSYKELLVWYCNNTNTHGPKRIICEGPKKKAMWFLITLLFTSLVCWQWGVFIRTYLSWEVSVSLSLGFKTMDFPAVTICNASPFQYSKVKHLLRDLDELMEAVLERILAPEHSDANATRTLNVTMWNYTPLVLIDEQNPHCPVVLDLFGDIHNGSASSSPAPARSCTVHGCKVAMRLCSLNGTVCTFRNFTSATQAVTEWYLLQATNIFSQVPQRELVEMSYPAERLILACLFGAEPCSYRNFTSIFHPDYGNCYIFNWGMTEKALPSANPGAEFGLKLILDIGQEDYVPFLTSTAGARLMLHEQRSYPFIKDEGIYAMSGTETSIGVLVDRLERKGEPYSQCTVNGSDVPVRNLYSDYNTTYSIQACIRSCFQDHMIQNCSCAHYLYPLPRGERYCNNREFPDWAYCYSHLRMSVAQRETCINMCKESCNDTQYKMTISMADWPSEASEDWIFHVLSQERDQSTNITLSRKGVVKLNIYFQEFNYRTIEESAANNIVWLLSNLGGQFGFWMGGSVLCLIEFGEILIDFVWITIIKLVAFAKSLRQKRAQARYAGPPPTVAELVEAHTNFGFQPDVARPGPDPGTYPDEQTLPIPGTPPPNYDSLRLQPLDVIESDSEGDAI
As to the kind of experiment: Sodium channel blocking activity: short circuit current (ISC) in airway epithelial monolayers in Ussing chambers. The following applies: for IC50: read-out: Potency of Sodium Channel Blockade (IC50), lumenal addition, airway epithelial monolayers (human, dog, sheep or rodent cells, not specified).
Experimental: One assay used to assess mechanism of action and/or potency of the compounds of the present invention involves the determination of lumenal drug inhibition of airway epithelial sodium currents measured under short circuit current (ISC) using airway epithelial monolayers mounted in Ussing chambers. Cells obtained from freshly excised human, dog, sheep or rodent airways are seeded onto porous 0.4 micron Snapwell™ Inserts (CoStar), cultured at air-liquid interface (ALI) conditions in hormonally defined media, and assayed for sodium transport activity (ISC) while bathed in Krebs Bicarbonate Ringer (KBR) in Ussing chambers. […] All drugs are prepared in dimethyl sulfoxide as stock solutions at a concentration of 1×10^−2 M and stored at 20° C. […] After the maximal concentration (5×10^−5 M) is administered, the lumenal bath is exchanged three times with fresh, drug-free KBR solution, and the resultant ISC measured after each wash for approximately 5 minutes in duration. Reversibility is defined as the percent return to the baseline value for sodium current after the third wash. All data from the voltage clamps are collected via a computer interface and analyzed off-line.
Dose-effect relationships for all compounds are considered and analyzed by the Prism 3.0 program.

On to `N=C(N)NC(=O)c1nc(Cl)c(N)nc1N` [Amiloride, reference compound], for which, in the data set on Bronchial cells, the “Epithelial Uptake Rate” value is recorded as 2 nM/cm^2/min. Moreover, the “Corneal penetration seen by confocal microscopy” value in the data set on mouse corneas is listed as “can fully penetrate the cornea”.
`NC(=NCc1ccccc1)NC(=O)c1nc(Cl)c(N)nc1N` [Benzamil]: in the data set on Bronchial cells, the “Epithelial Uptake Rate” value is recorded as 6.6 nM/cm^2/min and the “Fold Decrease in Apical Absorption (Relative to Amiloride)” value (from here on “Fold Decrease … (Relative to Amiloride)”) was found to be 0.3. The “Cellular penetration/uptake seen by confocal microscopy” value (from here on “Cellular penetration/uptake seen”) in data set [1] was “largely concentrated inside cells”. Moreover, in data set [1] (listed as benzamil), the “Cellular penetration/uptake seen” value is on record as “rapidly taken up by the cells”. The concentration for half-maximal inhibition (IC50) in data set [2] came out at 46 nM.
On to `N=C(NCCCCc1ccc(OCC(O)CO)cc1)NC(=O)c1nc(Cl)c(N)nc1N` (stereo not drawn) [Compound 1], for which, in data set [2], the IC50 stood at 7.4 nM and the “Fold Increase in Potency (Relative to Amiloride)” value is reported as 105.
Turning to `N=C(N)NCCOc1ccc(CCCCNC(=N)NC(=O)c2nc(Cl)c(N)nc2N)cc1` [Compound 2], in the data set with Bronchial cells, the “Epithelial Uptake Rate” value is listed as 0.2 nM/cm^2/min and the “Fold Decrease … (Relative to Amiloride)” value is listed as 10.0. In addition, the “Cellular penetration/uptake seen” value in data set [1] is “concentrated on the exterior cell surface”. In data set [2], the IC50 was found to be 10.2 nM and the “Fold Increase in Potency (Relative to Amiloride)” value is on record as 77.
With `N=C(N)NCCCC[C@@H](N)C(=O)NCCCN(CCCNC(=O)[C@H](N)CCCCNC(=N)N)CCOc1ccc(CCCCNC(=N)NC(=O)c2nc(Cl)c(N)nc2N)cc1` [Compound 3], the “Corneal penetration seen by confocal microscopy” value with mouse corneas was “remains associated with the apical (epithelial) surface”. In data set [2], the IC50 turned out to be 3.2 nM and the “Fold Increase in Potency (Relative to Amiloride)” value was 244.
As to `N=C(NCCCCc1ccc(OCCN(CCCc2ccccc2)C[C@H](O)[C@@H](O)[C@H](O)[C@H](O)CO)cc1)NC(=O)c1nc(Cl)c(N)nc1N` [Compound 5], in the data set on Bronchial cells, the “Epithelial Uptake Rate” value was 0.2 nM/cm^2/min and the “Fold Decrease … (Relative to Amiloride)” value is 10.0. In data set [2], the IC50 worked out at 6.6 nM and the “Fold Increase in Potency (Relative to Amiloride)” value was 118.
On to `N=C(NCCCCc1ccc(OCCN(CCCc2cccc3ccccc23)C[C@H](O)[C@@H](O)[C@H](O)[C@H](O)CO)cc1)NC(=O)c1nc(Cl)c(N)nc1N` [Compound 6], for which, in data set [2], the IC50 is 5.9 nM and the “Fold Increase in Potency (Relative to Amiloride)” value stood at 186.
As to `NC(=Nc1ccccc1)NC(=O)c1nc(Cl)c(N)nc1N` [Phenamil, reference compound], in the data set on Bronchial cells, the “Epithelial Uptake Rate” value is 9.0 nM/cm^2/min and the “Fold Decrease … (Relative to Amiloride)” value stood at 0.2. Besides, in data set [2], the IC50 was 116 nM and the “Fold Increase in Potency (Relative to Amiloride)” value is on record as 6.5.
